In ChEMBL document CHEMBL1201862, “PubChem BioAssay data set” (2004):
Calls of active or inactive are those of the source.

Assays:
[1] = target: 26S proteasome non-ATPase regulatory subunit 14 (Homo sapiens, UniProt O00487); experiment: inhibition of proteasome subunit RPN11 – biochemical, fluorescence polarization, uHTS hits, confirmation (AID 602368); format: functional
[2] = target: 72 kDa type IV collagenase (Homo sapiens, UniProt P08253); experiment: Dose Response validation of uHTS RPN11 inhibitor hits using a MMP-2 Fluorescence assay.; format: functional
Chain of 72 kDa type IV collagenase (P08253 whole entry): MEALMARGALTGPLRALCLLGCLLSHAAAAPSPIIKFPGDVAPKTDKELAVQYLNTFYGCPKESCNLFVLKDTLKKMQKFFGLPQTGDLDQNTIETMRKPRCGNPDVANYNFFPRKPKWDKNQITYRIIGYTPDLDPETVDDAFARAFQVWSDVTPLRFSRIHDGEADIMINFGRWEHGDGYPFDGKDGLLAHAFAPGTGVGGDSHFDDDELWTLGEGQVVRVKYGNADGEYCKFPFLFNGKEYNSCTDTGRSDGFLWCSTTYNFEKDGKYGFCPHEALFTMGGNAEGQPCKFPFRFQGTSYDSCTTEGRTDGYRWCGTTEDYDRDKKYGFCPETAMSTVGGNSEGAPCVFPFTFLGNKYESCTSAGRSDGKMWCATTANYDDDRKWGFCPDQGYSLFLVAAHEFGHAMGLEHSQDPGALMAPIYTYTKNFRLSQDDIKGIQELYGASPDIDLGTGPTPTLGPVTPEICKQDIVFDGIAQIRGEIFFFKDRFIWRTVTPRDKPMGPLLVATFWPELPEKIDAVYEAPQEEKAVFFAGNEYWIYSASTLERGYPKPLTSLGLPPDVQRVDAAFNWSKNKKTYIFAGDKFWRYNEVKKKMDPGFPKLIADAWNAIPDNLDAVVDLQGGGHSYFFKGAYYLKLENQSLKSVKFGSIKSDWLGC

Prothrombin = Prothrombin (Bos taurus, UniProt P00735); experiment: thrombin inhibition, dose response, biochemical, fluorescence polarization, uHTS hits (AID 602369); format: functional
[3] = target: Latent membrane protein 1 (Human herpesvirus 4 (strain B95-8), UniProt P03230); experiment: TES1-eGFP NF-kB reporter inhibition versus Tet-On dsRED, dose response, selectivity assay for LMP1 NF-kB inhibitor project, imaging, HEK293T, dual-color eGFP/dsRED, cherry-picks (AID 588398); format: functional, cell-based
Chain of Latent membrane protein 1 (P03230 whole entry): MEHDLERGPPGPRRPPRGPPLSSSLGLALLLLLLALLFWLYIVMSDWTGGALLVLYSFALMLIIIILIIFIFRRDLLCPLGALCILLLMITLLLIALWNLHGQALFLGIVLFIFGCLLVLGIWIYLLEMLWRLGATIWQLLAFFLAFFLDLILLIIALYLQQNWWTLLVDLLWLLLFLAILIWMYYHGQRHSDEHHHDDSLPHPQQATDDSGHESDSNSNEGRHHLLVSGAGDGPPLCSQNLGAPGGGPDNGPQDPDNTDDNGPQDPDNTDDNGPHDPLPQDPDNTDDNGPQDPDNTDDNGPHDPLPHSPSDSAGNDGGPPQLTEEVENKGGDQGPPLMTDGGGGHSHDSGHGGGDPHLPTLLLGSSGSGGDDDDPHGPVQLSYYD

[4] = cytotoxicity toward NIH3T3 fibroblasts, dose response, counter-screen, cell-based, ATP luminescence, mouse fibroblasts (AID 2010); format: functional;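 note: cells exposed to compound for about 90 hours before reading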
HEK293 [5] = experiment: inhibitors of LMP1-driven NF-kB reporter, dose response, cell-based, HEK293, luciferase, cherry-pick (AID 588343); format: functional; conditions: Homo sapiens
[6] = target: T1, RNA-binding protein pos-1 (Caenorhabditis elegans, UniProt G5EF15); experiment: inhibitors of POS-1/mex-3 RNA binding, dose response, biochemical, fluorescence polarization (AID 1964);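 note: purified POS-1 fused to maltose binding protein made in E. coli; potency of compounds blocking POS-1 binding to fluorescent RNA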
T1 sequence (G5EF15 whole entry): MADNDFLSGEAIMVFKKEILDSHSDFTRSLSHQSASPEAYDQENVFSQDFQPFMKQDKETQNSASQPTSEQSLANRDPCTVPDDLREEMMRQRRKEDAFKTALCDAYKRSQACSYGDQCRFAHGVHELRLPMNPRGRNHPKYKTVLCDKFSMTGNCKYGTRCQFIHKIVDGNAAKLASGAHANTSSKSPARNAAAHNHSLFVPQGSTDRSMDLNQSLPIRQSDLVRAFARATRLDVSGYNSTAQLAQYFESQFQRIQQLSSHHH

[7] = target: T2, Zinc finger protein mex-5 (Caenorhabditis elegans, UniProt Q9XUB2); experiment: MEX-5/TCR-2 RNA interaction inhibitors, dose response, biochemical, C. elegans, fluorescence polarization (AID 1960)
T2 sequence (Q9XUB2 whole entry): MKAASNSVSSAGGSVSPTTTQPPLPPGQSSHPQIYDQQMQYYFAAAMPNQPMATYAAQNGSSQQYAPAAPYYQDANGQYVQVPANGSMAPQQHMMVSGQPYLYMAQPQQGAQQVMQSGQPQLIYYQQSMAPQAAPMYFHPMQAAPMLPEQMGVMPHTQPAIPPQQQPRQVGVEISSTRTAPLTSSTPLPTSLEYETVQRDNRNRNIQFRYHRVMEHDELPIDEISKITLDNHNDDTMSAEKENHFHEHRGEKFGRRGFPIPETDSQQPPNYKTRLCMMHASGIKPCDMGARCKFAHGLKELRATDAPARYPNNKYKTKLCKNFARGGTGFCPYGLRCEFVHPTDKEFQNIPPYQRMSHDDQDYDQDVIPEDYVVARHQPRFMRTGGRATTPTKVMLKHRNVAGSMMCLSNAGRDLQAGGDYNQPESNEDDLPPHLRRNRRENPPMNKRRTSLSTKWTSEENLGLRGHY

Protein skinhead-1 = target: T3, Protein skinhead-1 (Caenorhabditis elegans, UniProt P34707); format: functional
T3 sequence (P34707 whole entry): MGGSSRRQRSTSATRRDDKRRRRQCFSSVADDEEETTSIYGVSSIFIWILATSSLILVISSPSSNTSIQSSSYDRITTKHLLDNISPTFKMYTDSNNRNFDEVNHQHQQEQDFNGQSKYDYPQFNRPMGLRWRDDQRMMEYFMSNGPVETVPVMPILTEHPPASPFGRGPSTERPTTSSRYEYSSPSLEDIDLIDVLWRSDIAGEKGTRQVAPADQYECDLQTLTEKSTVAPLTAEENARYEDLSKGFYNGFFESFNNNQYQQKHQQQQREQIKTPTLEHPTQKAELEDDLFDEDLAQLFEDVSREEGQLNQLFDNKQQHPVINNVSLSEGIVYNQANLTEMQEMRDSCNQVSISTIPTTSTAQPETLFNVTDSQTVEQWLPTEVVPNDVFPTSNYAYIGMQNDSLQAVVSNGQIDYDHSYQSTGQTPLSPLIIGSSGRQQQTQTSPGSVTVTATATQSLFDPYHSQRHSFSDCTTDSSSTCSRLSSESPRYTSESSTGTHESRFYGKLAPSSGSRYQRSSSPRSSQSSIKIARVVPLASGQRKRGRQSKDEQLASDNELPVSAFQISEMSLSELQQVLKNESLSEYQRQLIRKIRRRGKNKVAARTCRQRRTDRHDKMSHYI

[8] = inhibitors of intracellular T. cruzi replication, confirmation, NIH3T3 host cells, beta-gal luminescence (AID 2044); format: functional, cell-based;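 note: intracellular parasites grown in NIH/3T3 mouse fibroblasts as host cells; luminescent beta-galactosidase reporter signal from transgenic T. cruzi replicating inside host cells; inhibitors lower the luminescence signal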
[9] = cytotoxicity in HEK-293T cells, dose response, cytotoxicity control for BCR NF-kB inhibitor project, luminescence, B-cell screen hits (AID 489021); format: functional, cell-based;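 note: HEK-293T cells carrying an NF-kB luciferase reporter; cells exposed to compound for about 14 hours before viability readout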
Insulin-degrading enzyme [10] = target: T4, Insulin-degrading enzyme (Homo sapiens, UniProt P14735); experiment: activators of recombinant IDE enzyme, dose response, counter-screen for IDE activator project, biochemical, fluorescence polarization (AID 588681)
T4 sequence (P14735 whole entry): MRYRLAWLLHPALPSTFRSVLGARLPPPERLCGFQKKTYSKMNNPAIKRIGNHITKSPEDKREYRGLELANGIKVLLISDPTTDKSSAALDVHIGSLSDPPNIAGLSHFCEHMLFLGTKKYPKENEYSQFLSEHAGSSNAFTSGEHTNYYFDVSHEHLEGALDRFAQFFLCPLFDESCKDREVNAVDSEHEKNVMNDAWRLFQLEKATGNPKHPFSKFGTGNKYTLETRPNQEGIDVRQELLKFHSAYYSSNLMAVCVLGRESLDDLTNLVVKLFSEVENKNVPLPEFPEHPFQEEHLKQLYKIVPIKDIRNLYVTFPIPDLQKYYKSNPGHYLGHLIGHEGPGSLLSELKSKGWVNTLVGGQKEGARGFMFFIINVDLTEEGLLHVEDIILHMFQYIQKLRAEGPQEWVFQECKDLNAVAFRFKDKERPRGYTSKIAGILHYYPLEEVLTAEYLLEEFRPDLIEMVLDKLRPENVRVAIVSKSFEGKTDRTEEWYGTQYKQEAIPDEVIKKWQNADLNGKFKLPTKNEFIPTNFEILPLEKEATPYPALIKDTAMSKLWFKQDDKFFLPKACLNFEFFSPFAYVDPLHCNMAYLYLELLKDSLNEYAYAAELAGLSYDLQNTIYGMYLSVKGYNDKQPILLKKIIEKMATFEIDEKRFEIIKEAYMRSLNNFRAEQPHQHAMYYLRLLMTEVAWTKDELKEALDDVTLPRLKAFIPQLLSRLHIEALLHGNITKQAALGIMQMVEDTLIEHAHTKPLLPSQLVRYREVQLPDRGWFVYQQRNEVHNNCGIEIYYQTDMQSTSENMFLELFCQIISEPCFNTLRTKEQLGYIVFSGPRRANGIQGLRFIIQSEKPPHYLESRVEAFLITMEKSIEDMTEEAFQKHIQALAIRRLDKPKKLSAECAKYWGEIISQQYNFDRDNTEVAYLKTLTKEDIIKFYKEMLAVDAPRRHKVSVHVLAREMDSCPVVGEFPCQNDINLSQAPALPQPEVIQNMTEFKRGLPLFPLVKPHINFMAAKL

Insulin-degrading enzyme [11] = target: T4, Insulin-degrading enzyme; experiment: activators of endogenous IDE in HEK cells, dose response, cell-based, fluorescence polarization (AID 588439); format: functional
HEK293 [12] = experiment: HEK cell cytotoxicity by LDH release, dose response, cytotoxicity control for IDE activator project, fluorescence, HEK cells (AID 588440); format: functional, cell-based; conditions: Homo sapiens;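 note: cytotoxicity by LDH release measuring loss of membrane integrity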
CHO = experiment: cytotoxicity in TLR9-MyD88 CHO cells, dose response, cytotoxicity control for TLR9-MyD88 binding inhibitor project, cell-based, luminescence (AID 588339); format: functional, hamster; conditions: Cricetulus griseus;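 note: CHO cells stably coexpressing TLR9 and MyD88 fusions from primary screen; compound exposure lasted 48 hours before viability readout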
Beta-lactamase [13] = target: Beta-lactamase (Salmonella choleraesuis (strain SC-B67), UniProt Q5J463)
Chain of Beta-lactamase (Salmonella choleraesuis (strain SC-B67), UniProt Q5J463) (Q5J463 whole entry): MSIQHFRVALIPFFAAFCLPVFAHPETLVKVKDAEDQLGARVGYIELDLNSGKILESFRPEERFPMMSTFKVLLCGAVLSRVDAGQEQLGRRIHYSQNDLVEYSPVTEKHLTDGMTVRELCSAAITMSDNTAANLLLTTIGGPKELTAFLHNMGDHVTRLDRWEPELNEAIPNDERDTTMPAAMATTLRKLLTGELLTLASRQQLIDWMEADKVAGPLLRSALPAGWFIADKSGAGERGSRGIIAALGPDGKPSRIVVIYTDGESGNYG

HEK293 [14] = experiment: optical interference in Abeta FP readout, dose response, artefact control for IDE activator project, biochemical, fluorescence polarization (AID 588442); format: functional, cell-based; conditions: Homo sapiens
Beta-lactamase [15] = target: Beta-lactamase (Pseudomonas aeruginosa, UniProt Q79MP6);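 note: biochemical dose-response test of metallo-beta-lactamase enzyme inhibition, read out by epi-absorbance; purified recombinant IMP-1 metallo-beta-lactamase with nitrocefin as substrate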
Chain of Beta-lactamase (Pseudomonas aeruginosa, UniProt Q79MP6) (Q79MP6 whole entry): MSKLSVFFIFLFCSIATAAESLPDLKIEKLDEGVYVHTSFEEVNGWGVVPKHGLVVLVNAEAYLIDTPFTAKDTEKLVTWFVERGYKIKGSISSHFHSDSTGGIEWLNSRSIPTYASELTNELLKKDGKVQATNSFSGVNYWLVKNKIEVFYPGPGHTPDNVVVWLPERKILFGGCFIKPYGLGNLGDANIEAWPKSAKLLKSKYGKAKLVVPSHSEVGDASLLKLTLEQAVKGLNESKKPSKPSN

Cytochrome P450 1A2 = target: T5, Cytochrome P450 1A2 (Homo sapiens, UniProt P05177);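 note: PubChem cytochrome P450 panel assay, CYP1A2 panel member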
T5 sequence (P05177 whole entry): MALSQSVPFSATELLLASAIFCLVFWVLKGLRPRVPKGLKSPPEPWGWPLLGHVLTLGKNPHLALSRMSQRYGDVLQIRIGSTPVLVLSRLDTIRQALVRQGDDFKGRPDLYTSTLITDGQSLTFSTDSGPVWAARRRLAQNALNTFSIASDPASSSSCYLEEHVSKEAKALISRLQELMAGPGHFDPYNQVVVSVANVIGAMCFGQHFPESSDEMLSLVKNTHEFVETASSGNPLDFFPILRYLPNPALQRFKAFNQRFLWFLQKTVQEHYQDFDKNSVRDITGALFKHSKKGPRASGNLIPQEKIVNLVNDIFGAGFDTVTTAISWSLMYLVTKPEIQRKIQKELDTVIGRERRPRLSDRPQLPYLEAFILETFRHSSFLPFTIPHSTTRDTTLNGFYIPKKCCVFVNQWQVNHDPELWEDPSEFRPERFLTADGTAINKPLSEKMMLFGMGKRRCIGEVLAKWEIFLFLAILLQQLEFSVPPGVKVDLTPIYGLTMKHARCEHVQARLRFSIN

[16] = growth suppression of PTEN-null colon cells, dose response, cell-based, HCT116 PTEN knockout (AID 1047); format: functional;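 note: HCT116 colon tumor cells with PTEN knocked out; cells exposed to compound for 60 hours before readout; potency for loss of cell viability measured by luminescence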
[17] = growth suppression of beta-catenin-knockout colon cells, dose response, cell-based, HCT116, human colon tumor (AID 1045); format: functional;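 note: HCT116 colon tumor cells with beta catenin knocked out; cells exposed to compound for 60 hours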
[18] = control 3'UTR Renilla luciferase suppression, dose response, counter-screen for Shn3 inhibitor project, cell-based, Clone20-Shn3RL, cherry-picked (AID 624133); format: functional
[19] = Shn3 3'UTR reporter inhibitors, dose response, cell-based, Clone20 osteoblasts, firefly luciferase, cherry-picked (AID 624132); format: functional;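 note: firefly luciferase luminescence from reporter carrying the Shn3 3'UTR in osteoblasts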
[20] = Luminescence Cell-Based Dose Retest to Confirm Inhibitors of Cancer Stem Cells. [Related pubchem assays (depositor defined):AID2717, AID2721]; format: functional; conditions: Homo sapiens
INS1 = experiment: beta cell apoptosis inhibitors, cytokine rescue, dose response, luminescence, retest (AID 449756); format: functional, cell-based; conditions: Rattus norvegicus;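 note: cell death triggered by IL-1 beta plus TNF-alpha plus IFN-gamma mixture; protective hits raise ATP signal compared with cytokine alone wells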
[21] = HepG2 cell cytotoxicity, dose response, cytotoxicity control for Shn3 inhibitor project, CellTiter-Glo, cherry-picked (AID 624134); format: functional, cell-based
[22] = target: Multidrug resistance protein CDR1 (Candida albicans, UniProt P43071); experiment: CaCDR1 efflux pump inhibitors in yeast, dose response, S. cerevisiae AD1-8u, singleplex, Cherry Pick1 hits (AID 588606); format: functional
Chain of Multidrug resistance protein CDR1 (P43071 whole entry, looked up): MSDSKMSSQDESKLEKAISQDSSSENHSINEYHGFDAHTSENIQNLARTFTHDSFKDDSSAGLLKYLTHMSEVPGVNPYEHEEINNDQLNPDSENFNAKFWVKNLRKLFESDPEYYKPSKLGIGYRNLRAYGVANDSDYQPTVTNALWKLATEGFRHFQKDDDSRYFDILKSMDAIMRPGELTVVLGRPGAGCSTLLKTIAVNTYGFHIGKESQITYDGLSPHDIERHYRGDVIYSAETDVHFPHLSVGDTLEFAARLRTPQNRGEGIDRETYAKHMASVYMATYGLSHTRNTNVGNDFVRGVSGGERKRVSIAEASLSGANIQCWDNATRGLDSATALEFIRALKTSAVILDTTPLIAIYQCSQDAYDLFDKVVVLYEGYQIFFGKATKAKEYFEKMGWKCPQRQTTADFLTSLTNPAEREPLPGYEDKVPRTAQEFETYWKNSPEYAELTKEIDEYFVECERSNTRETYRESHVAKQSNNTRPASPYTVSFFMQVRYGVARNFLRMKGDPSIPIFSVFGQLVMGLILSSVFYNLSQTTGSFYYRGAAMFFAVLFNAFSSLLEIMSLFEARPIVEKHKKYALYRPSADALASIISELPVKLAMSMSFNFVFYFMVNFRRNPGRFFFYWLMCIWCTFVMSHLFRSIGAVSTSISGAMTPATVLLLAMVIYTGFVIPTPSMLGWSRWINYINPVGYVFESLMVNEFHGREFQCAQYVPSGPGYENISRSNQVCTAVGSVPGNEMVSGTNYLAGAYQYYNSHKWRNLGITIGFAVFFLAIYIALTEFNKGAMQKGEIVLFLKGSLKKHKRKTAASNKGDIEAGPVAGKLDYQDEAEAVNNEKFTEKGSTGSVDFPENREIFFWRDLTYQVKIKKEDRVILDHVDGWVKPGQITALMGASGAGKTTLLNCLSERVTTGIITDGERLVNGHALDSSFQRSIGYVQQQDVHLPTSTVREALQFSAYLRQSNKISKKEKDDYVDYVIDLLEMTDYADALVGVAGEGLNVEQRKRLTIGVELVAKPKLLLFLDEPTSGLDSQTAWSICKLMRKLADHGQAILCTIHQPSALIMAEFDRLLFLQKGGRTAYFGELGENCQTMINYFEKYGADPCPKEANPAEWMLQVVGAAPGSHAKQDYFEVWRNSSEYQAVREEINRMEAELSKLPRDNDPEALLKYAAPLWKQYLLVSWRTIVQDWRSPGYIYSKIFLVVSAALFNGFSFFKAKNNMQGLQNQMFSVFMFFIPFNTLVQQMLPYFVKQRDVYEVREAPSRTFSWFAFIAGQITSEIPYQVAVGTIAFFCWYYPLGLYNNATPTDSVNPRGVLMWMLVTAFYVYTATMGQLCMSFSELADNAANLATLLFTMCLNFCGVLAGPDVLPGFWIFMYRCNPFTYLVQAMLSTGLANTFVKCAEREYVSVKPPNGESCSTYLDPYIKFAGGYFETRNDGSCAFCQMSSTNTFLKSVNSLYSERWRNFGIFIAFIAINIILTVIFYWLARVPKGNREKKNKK

[23] = nonselective inhibitors of cellular cAMP signaling, dose response, counter-screen for MC4R biased antagonist project, cell-based, TR-FRET cAMP detection (AID 602305); format: functional;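 note: U2OS cells stimulated with forskolin near its EC80 as the cAMP inducer; potency is for inhibition of forskolin-stimulated cAMP signaling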
Melanocortin receptor 4 = Melanocortin receptor 4 (Homo sapiens, UniProt P32245); experiment: MC4R antagonist potency on cAMP, dose response, cell-based, TR-FRET, biased antagonists (AID 602298); format: functional;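 note: antagonist potency against agonist-stimulated cAMP production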
[24] = target: Cyclin-dependent kinase 1 (Homo sapiens, UniProt P06493); format: functional;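 note: Kinome-wide panel profiling, with the target listed as panel member CDC2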
Chain of Cyclin-dependent kinase 1 (P06493 whole entry): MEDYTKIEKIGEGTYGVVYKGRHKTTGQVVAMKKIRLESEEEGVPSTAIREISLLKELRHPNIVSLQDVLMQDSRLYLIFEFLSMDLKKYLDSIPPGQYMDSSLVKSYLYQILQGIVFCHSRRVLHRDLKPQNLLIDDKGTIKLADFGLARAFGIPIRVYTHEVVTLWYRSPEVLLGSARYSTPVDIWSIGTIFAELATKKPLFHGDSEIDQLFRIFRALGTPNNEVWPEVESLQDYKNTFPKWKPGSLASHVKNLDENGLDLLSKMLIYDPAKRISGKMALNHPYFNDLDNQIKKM

[25] = target: Insulin-like growth factor 1 receptor (Homo sapiens, UniProt P08069); experiment: Navigating the Kinome. Panel member name: IGF1R; format: functional
Chain of Insulin-like growth factor 1 receptor (P08069 31-736 limits assumed): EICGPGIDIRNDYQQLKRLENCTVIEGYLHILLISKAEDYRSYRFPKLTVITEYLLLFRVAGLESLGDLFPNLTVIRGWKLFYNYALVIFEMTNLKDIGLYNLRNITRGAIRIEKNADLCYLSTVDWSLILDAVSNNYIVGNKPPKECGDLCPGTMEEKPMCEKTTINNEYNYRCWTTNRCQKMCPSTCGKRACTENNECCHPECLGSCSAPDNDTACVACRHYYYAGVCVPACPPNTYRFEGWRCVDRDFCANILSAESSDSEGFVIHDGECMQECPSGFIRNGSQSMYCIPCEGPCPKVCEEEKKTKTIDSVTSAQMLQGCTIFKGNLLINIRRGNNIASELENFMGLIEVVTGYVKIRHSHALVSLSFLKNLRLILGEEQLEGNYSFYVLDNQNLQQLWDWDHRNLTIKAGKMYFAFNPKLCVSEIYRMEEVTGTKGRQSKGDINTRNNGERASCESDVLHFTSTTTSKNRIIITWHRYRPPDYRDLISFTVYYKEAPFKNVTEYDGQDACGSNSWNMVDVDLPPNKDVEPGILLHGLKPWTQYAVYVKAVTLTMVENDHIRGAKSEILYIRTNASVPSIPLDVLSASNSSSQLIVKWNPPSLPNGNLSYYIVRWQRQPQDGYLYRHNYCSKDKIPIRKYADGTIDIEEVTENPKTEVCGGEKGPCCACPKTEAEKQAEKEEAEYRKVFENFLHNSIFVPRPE
Chain of Insulin-like growth factor 1 receptor (P08069 741-1367 limits assumed): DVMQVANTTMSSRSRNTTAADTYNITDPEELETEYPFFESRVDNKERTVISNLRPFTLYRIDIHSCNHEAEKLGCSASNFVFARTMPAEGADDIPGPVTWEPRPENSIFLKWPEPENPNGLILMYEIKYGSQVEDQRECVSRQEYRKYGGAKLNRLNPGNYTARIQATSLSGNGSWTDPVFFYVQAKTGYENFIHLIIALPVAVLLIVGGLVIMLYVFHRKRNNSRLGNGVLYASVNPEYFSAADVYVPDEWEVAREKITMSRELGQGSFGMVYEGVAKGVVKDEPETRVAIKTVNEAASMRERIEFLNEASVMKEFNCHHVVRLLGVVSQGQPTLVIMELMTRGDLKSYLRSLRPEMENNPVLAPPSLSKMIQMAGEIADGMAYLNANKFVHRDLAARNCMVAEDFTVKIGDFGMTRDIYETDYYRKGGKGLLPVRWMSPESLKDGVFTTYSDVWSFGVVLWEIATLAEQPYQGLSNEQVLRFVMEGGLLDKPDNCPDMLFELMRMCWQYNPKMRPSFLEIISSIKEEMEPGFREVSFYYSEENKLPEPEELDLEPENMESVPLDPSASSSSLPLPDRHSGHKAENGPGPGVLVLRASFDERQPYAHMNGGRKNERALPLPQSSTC

[26] = target: Vascular endothelial growth factor receptor 3 (Homo sapiens, UniProt P35916); format: functional;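 note: value from a kinome-wide profiling panel, with FLT4 as the panel member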

Chain of 26S proteasome non-ATPase regulatory subunit 14 (O00487 whole entry): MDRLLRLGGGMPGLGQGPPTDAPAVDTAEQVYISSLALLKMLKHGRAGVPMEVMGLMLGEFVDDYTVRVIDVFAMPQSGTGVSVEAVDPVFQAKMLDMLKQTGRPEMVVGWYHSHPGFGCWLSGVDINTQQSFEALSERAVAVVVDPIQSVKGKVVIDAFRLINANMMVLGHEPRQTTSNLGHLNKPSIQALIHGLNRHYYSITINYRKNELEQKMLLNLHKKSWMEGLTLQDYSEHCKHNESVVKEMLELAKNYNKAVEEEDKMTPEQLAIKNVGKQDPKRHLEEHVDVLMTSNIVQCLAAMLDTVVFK

Cc1cc(C(F)(F)F)nc(SCCN2CCOCC2)c1C#N
IC50 [1]: 19.7 µM (active)
IC50 [2]: > 100 µM (inactive)
IC50 (Prothrombin): 25.7 µM (active)

CCc1ccc(/C=C2\SC(=S)N(CCCC(=O)Nc3ccccn3)C2=O)cc1
AC50 [3]: 16.2 µM (active)
EC50 [4]: 54.8 µM (active)
AC50 (HEK293 [5]): 4.92 µM (active)
EC50 [6]: 27.1 µM (active)
EC50 [7]: 24.6 µM (active)
IC50 (Protein skinhead-1): > 100 µM (inactive)
EC50 [8]: 1.83 µM (active)
IC50 [9]: > 80 µM (inactive)

CCCCNc1ccc2c3c(cccc13)C(=O)N(CCCC)C2=O
EC50 (Insulin-degrading enzyme [10]): > 54.7 µM (inactive)
EC50 (Insulin-degrading enzyme [11]): > 54.7 µM (inactive)
IC50 (HEK293 [12]): > 89.1 µM (inactive)
IC50 (CHO): > 49.7 µM (inactive)
IC50 (Beta-lactamase [13]): 3.89 µM (active)
EC50 (HEK293 [14]): 12.1 µM (inactive)
IC50 (Beta-lactamase [15]): 37.2 µM (inactive)

COc1ccc(Cn2c(SCc3ccccc3C)nc3cc(OC)c(OC)cc3c2=N)cc1
AC50 (Cytochrome P450 1A2): 15.8 µM (inconclusive)
EC50 (Insulin-degrading enzyme [10]): > 54.7 µM (inactive)
EC50 (Insulin-degrading enzyme [11]): 9.39 µM (active)
IC50 (HEK293 [12]): 18.5 µM (inactive)
EC50 [16]: 4.85 µM (active)
EC50 [17]: 3.81 µM (active)
EC50 (HEK293 [14]): > 54.7 µM (inactive)
AC50 [18]: 16 µM (active)
AC50 [19]: 5.46 µM (active)
AC50 [20]: 2.71 µM (active)
AC50 (INS1): 4.3 µM (active)
AC50 [21]: 12.8 µM (active)

CSc1nsc(/C=C/Nc2ccc(C(=O)O)cc2)c1C#N
IC50 [1]: 24.8 µM (active)
IC50 [2]: 45 µM (active)
IC50 (Prothrombin): 27.6 µM (active)

O=C(Nc1ccnc(-c2cccnc2)n1)c1cccc(Cl)c1Cl
EC50 [22]: 0.117 µM (active)

CC(C)(C)C(=O)COC(=O)CNC(=O)c1ccc(Oc2ccccc2)cc1
IC50 [23]: > 64.6 µM (inactive)
IC50 (Melanocortin receptor 4): > 64.6 µM (inactive)

Cc1cc(C)c(C=C2C(=O)Nc3ccccc32)[nH]1
Ki [24]: > 7.94 µM (inactive)
Ki [25]: > 1 µM (inactive)
Ki [26]: 0.316 µM (active)
